Test results from patent publication US9326513B2, “Fungicidal compositions” (Syngenta Participations AG, priority 2011, dated 2016).

Legend:
Type in all cases: in vivo
Settings in all cases: foliar, compared to untreated control leaf disks, read-out: disease control
[1] = system: Blumeria graminis f. sp. tritici (Erysiphe graminis f. sp. tritici); test: Blumeria graminis f. sp. tritici / wheat / leaf disc preventative (powdery mildew on wheat)
How it was run: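 Preventative leaf-disc test: compound (200 ppm) was sprayed onto cv. Kanzler wheat segments, which were dusted with conidia from infected plants 1 day after application. After incubation at 20° C and 60% rh, disease control relative to untreated segments was rated 6-8 days after application.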

[2] = system: Puccinia recondita f. sp. tritici; test: Puccinia recondita f. sp. tritici / wheat / leaf disc preventative (brown rust)
Description: Puccinia recondita f. sp. tritici/Wheat/Leaf Disc Preventative (Brown Rust) Wheat leaf segments cv. Kanzler were placed on agar in multiwell plates (24-well format) and sprayed with the formulated test compound diluted in water. The leaf disks were inoculated with a spore suspension of the fungus 1 day after application.

[3] = system: Puccinia recondita f. sp. tritici; test: Puccinia recondita f. sp. tritici / wheat / leaf disc curative (brown rust)
Method: Puccinia recondita f. sp. tritici/Wheat/Leaf Disc Curative (Brown Rust) Wheat leaf segments cv. Kanzler are placed on agar in multiwell plates (24-well format). The leaf segments are inoculated with a spore suspension of the fungus. Plates were stored in darkness at 19° C. and 75% rh. The formulated test compound diluted in water was applied 1 day after inoculation.

Pyrenophora teres = Pyrenophora teres / barley / leaf disc preventative (net blotch)
Description: Pyrenophora teres/Barley/Leaf Disc Preventative (Net Blotch) Barley leaf segments cv. Hasso were placed on agar in a multiwell plate (24-well format) and sprayed with the formulated test compound diluted in water. The leaf segments were inoculated with a spore suspension of the fungus 2 days after application.

Measured: pest or weed control at 200 ppm

CCN(C)/C=N/c1cc(Br)c(OCc2ccsc2)nc1C [Q.208]
≥ 50%: all assays above

CCN(C)/C=N/c1cc(Br)c(OCC[C@H]2CC[C@@H](O)CC2)nc1C [Q.005]
≥ 50%: all assays above

CCN(C)/C=N/c1cc(Br)c(OC(C)C2CCc3ccccc3C2)nc1C (stereo not shown) [Q.225]
≥ 50%: all assays above

CCN(C)/C=N/c1cc(Br)c(OC2Cc3ccc(C#N)cc3C2)nc1C (stereo not shown) [Q.376]
≥ 50%: all assays above

CCN(C)/C=N/c1cc(Br)c(OC(C)c2ccns2)nc1C (stereo not shown) [Q.246]
≥ 50%: all assays above

CCN(C)/C=N/c1cc(Br)c(OCC2CC=CCC2)nc1C (stereo not shown) [Q.029]
≥ 50%: all assays above

CCN(C)/C=N/c1cc(Br)c(OC(C)c2ccc(F)c(F)c2)nc1C (stereo not shown) [Q.204]
≥ 50%: all assays above

CCN(C)/C=N/c1cc(Br)c(OCc2ccccc2C#N)nc1C [Q.304]
≥ 50%: all assays above

CCN(C)/C=N/c1cc(Br)c(OCCCc2ccccc2)nc1C [Q.100]
≥ 50%: all assays above

CCN(C)/C=N/c1cc(Br)c(OC2Cc3cccc(C)c3C2)nc1C (stereo not shown) [Q.200]
≥ 50%: all assays above

Cc1nc(OC2CCC3(CC2)OCCO3)c(Br)cc1/N=C/N(C)C [Q.054]
≥ 50%: all assays above

CCN(C)/C=N/c1cc(Br)c(OCc2ccc(C(F)(F)F)nc2)nc1C [Q.136]
≥ 50%: all assays above

CCN(C)/C=N/c1cc(Br)c(OCc2cc(OC)cc(OC)c2)nc1C [Q.370]
≥ 50%: all assays above

CCN(C)/C=N/c1cc(Br)c(OC2CCc3ccc(/C(C)=N/OC)cc3C2)nc1C (stereo not shown) [Q.039]
≥ 50%: all assays above

CCN(C)/C=N/c1cc(Br)c(OC(C)C2CCCc3ccccc32)nc1C (stereo not shown) [Q.227]
≥ 50%: all assays above

CCN(C)/C=N/c1cc(Br)c(OCc2cccc(F)c2)nc1C [Q.176]
≥ 50%: all assays above

CCN(C)/C=N/c1cc(Br)c(OC2CC(C)=C(C)C2)nc1C [Q.315]
≥ 50%: all assays above

CCN(C)/C=N/c1cc(Br)c(OC(C)c2ccc3c(c2)CCCC3)nc1C (stereo not shown) [Q.238]
≥ 50%: all assays above

CCN(C)/C=N/c1cc(Br)c(OC(C)c2cc(-c3ccccc3)no2)nc1C (stereo not shown) [Q.075]
≥ 50%: all assays above

CCN(C)/C=N/c1cc(Br)c(OCc2cccc(C(F)F)c2)nc1C [Q.170]
≥ 50%: all assays above

CCN(C)/C=N/c1cc(Br)c(OC2Cc3cc(C)c(C)cc3C2)nc1C [Q.197]
≥ 50%: all assays above

CCN(C)/C=N/c1cc(Br)c(OCc2ccc(Cl)cc2)nc1C [Q.097]
≥ 50%: all assays above

CCN(C)/C=N/c1cc(OC)c(O[C@H]2CC[C@@H](C(C)C)CC2)nc1C [Q.248]
≥ 50%: all assays above

CCN(C)/C=N/c1ccc(O[C@H]2CC[C@H](CC)CC2)nc1C [Q.380]
≥ 50%: all assays above

CCN(C)/C=N/c1cc(Br)c(OCCCC(C)F)nc1C (stereo not shown) [Q.052]
≥ 50%: all assays above

CCc1ccccc1COc1nc(C)c(/N=C/N(C)CC)cc1Br [Q.285]
≥ 50%: all assays above

COc1cc(COc2ccc(/N=C/N(C)C(C)C)c(C)n2)cc(OC)c1 [Q.377]
≥ 50%: [2] | [3] | Pyrenophora teres

CCN(C)/C=N/c1cc(Br)c(OCc2snc(-c3ccc(F)cc3)c2Br)nc1C [Q.125]
≥ 50%: [1] | [2] | Pyrenophora teres

C#Cc1cc(/N=C/N(C)CC)c(C)nc1O[C@H]1CC[C@H](C(C)C)CC1 [Q.253]
≥ 50%: [2] | [3] | Pyrenophora teres

COc1ccccc1COc1ccc(/N=C/N(C)C(C)C)c(C)n1 [Q.366]
≥ 50%: [2] | [3] | Pyrenophora teres

CCN(C)/C=N/c1cc(Br)c(OC2CCNCC2)nc1C [Q.053]
≥ 50%: [1] | Pyrenophora teres

CCN(C)/C=N/c1cc(Br)c(OCc2cccc(C#Cc3ccccc3)c2)nc1C [Q.311]
≥ 50%: [2] | [3] | Pyrenophora teres

CCN(C)/C=N/c1cc(Br)c(OC(C)c2ccsc2)nc1C (stereo not shown) [Q.245]
≥ 50%: [1] | [2] | Pyrenophora teres

C=C(C)CC(CC(=C)C)Oc1nc(C)c(/N=C/N(C)CC)cc1Br [Q.232]
≥ 50%: [2] | [3] | Pyrenophora teres

CCN(C)/C=N/c1cc(Br)c(OC2Cc3cc(Br)c(OC)cc3C2)nc1C (stereo not shown) [Q.202]
≥ 50%: [1] | [2] | Pyrenophora teres
